For four molecules, Ki and Kd results are on record in patent publication US20050192339A1, “Compounds” (priority 2003, published 2005).

Counter-ions that a name gives are not always drawn.

By Ki is commonly meant the dissociation constant of the complex between target and ligand, obtained from inhibition or displacement. As usually defined, the Kd is a measure of binding affinity in units of concentration.

The target of assay [1] is T1, human MCH1R receptor (Homo sapiens, UniProt Q99705).
T1 construct: host or cells: CHO-K1
T1 sequence (Q99705 whole entry): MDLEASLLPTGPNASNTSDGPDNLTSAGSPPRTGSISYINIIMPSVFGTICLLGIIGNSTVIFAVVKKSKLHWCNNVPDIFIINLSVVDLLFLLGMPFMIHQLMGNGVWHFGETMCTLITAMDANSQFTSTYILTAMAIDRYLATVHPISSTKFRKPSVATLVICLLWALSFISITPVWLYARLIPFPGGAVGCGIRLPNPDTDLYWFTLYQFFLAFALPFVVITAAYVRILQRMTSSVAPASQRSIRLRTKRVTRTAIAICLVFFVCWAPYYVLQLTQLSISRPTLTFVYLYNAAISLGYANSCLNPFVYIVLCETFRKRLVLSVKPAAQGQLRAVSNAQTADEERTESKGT
The assay can be described thus: MCH1R receptor binding by SPA ([125I]-MCH displacement, CHO-K1 hMCH1R membranes). The note with it: 0.2 nM [125I]-MCH, membranes of CHO-K1 cells expressing hMCH1 receptor, room temperature; Ki calculated from IC50 (Cheng-Prusoff). As to the method: The compounds according to the invention were evaluated for their binding to the human MCH1R receptor by the following method:
Compounds: MCH peptide was purchased from Phoenix pharmaceuticals. (Phe^13, [^125I]Tyr^19 Melanine-Concentrating Hormone (human, mouse, rat) ([^125I]-MCH) was obtained from NEN life Science Products. Inc. Boston, Mass. Wheat germ agglutinine SPA beads (RPNQ 0001) were obtained from Amersham-Pharmacia Biotech. All other reagents used are of highest purity from different resources available. Protein Kits, Micro BCA™ Protein Assay Reagent Kit (Cat No. 23235) were purchased from Piece, Rockford, Ill., USA.
CHO-K1 cells expressing hMCH1 receptor were purchased from Euroscreen. CHO-K1 hMCHRI (Euroscreen, Brussels, Belgium, # ES-370-C) were cultivated in Nutrient mixture Ham's F-12 with Glutamax I (Gibco-BRL #31765-027) supplemented with 10% heat-inactivated foetal calf serum (FCS, Gibco-BRL #10108-165) and 400 μg/ml geniticin (Gibco-BRL #1140-0359). The cells were sub-cultivated twice weekly with split ratio=1:20-1:30. For membrane preparation the cells were cultured in […] and the cells were harvested when 90% confluent.
When the cells reached more than 90% confluence, dishes (500 cm^2) were rinsed twice with 20 ml PBS (Ca^2+ and Mg^2+ free). Buffer A, which contains Tris.HCl (15), MgCl2.6H2O (2), EDTA (0.3), EGTA (1) in mM with pH 7.5, 25 ml was added and cells were suspended using a window scraper. The cells were collected in 50 ml Falcon tube pre-cooled on ice and then centrifuged for 3 minutes at 1500 g at 4° C. […]
The radio labeled [^125I]-MCH was diluted with cold MCH in ratio 1:3. […] The results were calculated using Excel program and the curves were drawn using a program GraphPad Prism.
For screening of the substances the amount of the beads used was 0.25 mg/well and the amount of the membrane protein was 4 μg/well 0.2 nM of labeled MCH was used. […] The samples were counted using Microbeta counter (Wallac Trilux 1450 Micro beta counter, Wallac, Finland) for 2 minutes and the results were calculated by using the computer program Activity Base. […]

Assay [2] has as its target T1, human MCH1R receptor. The note with it: from Hervieu et al., Eur J Neurosci 2000; read-out: Kd of MCH binding reported in literature; cited from earlier work.

Consider `COc1ccc([C@@]23CC[C@@H](NC(=S)NCc4ccccc4)C[C@@H]2N(CCCc2ccccc2)CC3)cc1OC` (relative stereo) [Example 23, N-benzyl-N′-[(3aS*,6R*,7aS*)-3a-(3,4-dimethoxyphenyl)-1-(3-phenylpropyl)octahydro-1H-indol-6-yl]thiourea], for which the Ki on human MCH1R receptor [1] was 43 nM. Turning to `C=CCNC(=O)N[C@@H]1CC[C@@]2(c3ccc(OC)c(OC)c3)CCN(C)[C@H]2C1` (relative stereo) [Example 58, N-allyl-N′-[(3aS*,6R*7aS*)-3a-(3,4-dimethoxyphenyl)-1-methyloctahydro-1H-indol-6-yl]urea trifluoroacetate], the Ki at human MCH1R receptor [1] is 907 nM. Turning to `COc1ccc([C@@]23CC[C@@H](NC(=O)NCc4ccc(Br)cc4)C[C@@H]2N(C)CC3)cc1OC` (relative stereo) [Example 69, N-(4-bromobenzyl)-N′-[(3aS*,6R*,7aS*)-3a-(3,4-dimethoxyphenyl)-1-methyloctahydro-1H-indol-6-yl]urea trifluoroacetate], on human MCH1R receptor [1], the Ki is 227 nM. As to [^125I]-MCH, on human MCH1R receptor [2], the Kd is 1.2 nM.
